Measurements published in patent US20050165115A1, “Methods and compositions for predicting compliance with an antidepressant treatment regimen” (priority 2003, published 2005).

How the values were obtained:
[1] = in vivo
From the text: (§1) The study group included 255 outpatients 65 years of age or older with major depressive disorder (MDD) who were randomized to mirtazapine or paroxetine in a double-blind design at 18 U.S. centers. Details of the study design and overall clinical outcomes have been previously described (Schatzberg et al., Am J Geriatr Psychiatry 10(5):541-550 (2002)). […] At baseline all patients scored above the age-adjusted 25th percentile on the Mini Mental State Exam (MMSE), and all had Hamilton Depression Rating Scale (HDRS-17) scores ≧18. Starting doses were 15 mg for mirtazapine and 20 mg for paroxetine. Dosage for both medications was increased to 30 mg after 14 days, with the option to increase to 45 mg of mirtazapine or 40 mg of paroxetine on subsequent visits. Exclusion criteria were clinically significant unstable medical illness, history of treatment resistance, principal psychiatric diagnoses other than MDD, use of other psychotropics, and electroconvulsive therapy (ECT) within the previous 6 months.
(§2) Genomic DNA was extracted from EDTA-treated frozen whole blood by using a Puregene Kit (Gentra Systems, Minneapolis). 5HTTLPR genotypes were determined by PCR and gel electrophoresis as described in Edenberg et al., Psychiatr. Genet. 8(3):193-195 (1998).
(§3) Plasma drug levels were obtained after 4 weeks of treatment as described (Murphy et al., Biol Psychiatry 54:665-673 (2003)). Efficacy outcome measures (determined at baseline and at day 7,14, 21, 28, 42, and 56) included the Hamilton Depression Rating Scale (HDRS-17) (Hamilton et al., Br J Soc Clin Psychol. 6(4):278-296 (1967)) and the Geriatric Depression Scale (GDS) (Yesavage et al., J. Psychiat. Res. 17:37-49 (1983)). Measures related to adverse events included Medication Compliance, Severity of Adverse Events, Time to Discontinuation of Treatment Regimen due to an adverse event, and number of discontinuations due to an adverse event. Statistical methods included analyses of covariance (adjusted for baseline scores), Cochran-Mantel-Haenszel statistics, and Kaplan-Meier survival analyses. […] Analyses were performed for the entire group and also with 20 ethnic minority patients omitted.

[2] = test system: outpatients 65 years of age or older with major depressive disorder (MDD); details: in vivo
From the text: as §1, §2, §3

[3] = test system: outpatients 65 years of age or older with major depressive disorder (MDD); test: Efficacy outcome measures (HDRS-17, GDS) in double-blind mirtazapine vs paroxetine study, stratified by 5HTTLPR genotype; format: in vivo, human; details: for HAMD-17 or GDS, differences among the three genotype groups: patients stratified by 5HTTLPR genotype (S/S, S/L, L/L), any time point
From the text: Genet. 8(3):193-195 (1998).

## CN1CCN2c3ncccc3Cc3ccccc3C2C1 (stereo not drawn) [mirtazapine]
[1]
  plasma levels at day 28, differences among the genotype groups: no significant differences
[2]
  adverse events associated with L/L genotype discontinuations: drowsiness, dizziness, and anxiety
  frequency of discontinuation of treatment regimen, L/L genotype: most frequent
  relationship between number of L alleles and discontinuation due to adverse events, Caucasian patients: positive linear relationship
  relationship between number of L alleles and probability of discontinuation due to adverse events: positive linear relationship
  severity of adverse events, L/L vs S/S genotype: greater severity
[3]; after adjusting for baseline difference, any subsequent time point
  GDS scores, S carriers vs others: not significantly different
[3]; day 14, less depressed, p<0.27
  HDRS scores, S allele carriers: lower HDRS scores
[3]
  HAMD-17 or GDS, differences among the three genotype groups: no significant differences

## Fc1ccc([C@@H]2CCNC[C@H]2COc2ccc3c(c2)OCO3)cc1 [paroxetine]
[2]; human
  subjects who discontinued treatment regimen due to adverse events, 5HTTLPR S/S and 5HT2A C/C genotypes: 7 of 10
[2]
  adverse events associated with S/S discontinuations: gastrointestinal complaints, fatigue, agitation, sweating, and dizziness
  effects of 5HTTLPR and 5HT2A 102 T/C on discontinuation of treatment regimen due to adverse events: significant effects
  frequency of discontinuation of treatment regimen, L/L genotype: fewest
  frequency of discontinuation of treatment regimen, S/L genotype: intermediate frequency
  frequency of discontinuation of treatment regimen, S/S genotype: most frequent
  interaction term 5HTTLPR x 5HT2A 102 T/C on discontinuation due to adverse events: not significant
  relationship between number of S alleles and discontinuations due to adverse events, Caucasian patients: positive linear relationship
  relationship between number of S alleles and probability of discontinuation due to adverse events: positive linear relationship
  risk of discontinuation of the treatment regimen due to adverse events, S/L vs L/L genotype: significantly greater risk
  severity of adverse events, S/S vs L/L genotype: greater severity
  subjects who discontinued treatment regimen, L/L and T/T genotypes: none
[3]; FIG. 2B
  HDRS, carriers of the S allele vs others: No differences
[3]; days 7 (p=0.003) and 28 (p=0.04), adjusted for baseline body weight, higher = more depressed
  GDS scores, carriers of the S allele: significantly higher scores
[3]
  HAMD-17 or GDS, differences among the three genotype groups: no significant differences
